The text below walks through data of patent US12692262B2, “Substituted ureas as orexin receptor agonists” (Merck Sharp & Dohme LLC, priority 2020, dated 2026).

SMILES strings stand for the structures. pEC50: −log10 of the molar value.

The assay concerns the target T1, human OX2R (Homo sapiens, UniProt O43614).
T1 construct: expressed in transfected cells; host or cells: CHO (Chinese hamster ovary) cells grown under G418 selection
T1 sequence (O43614 1-444): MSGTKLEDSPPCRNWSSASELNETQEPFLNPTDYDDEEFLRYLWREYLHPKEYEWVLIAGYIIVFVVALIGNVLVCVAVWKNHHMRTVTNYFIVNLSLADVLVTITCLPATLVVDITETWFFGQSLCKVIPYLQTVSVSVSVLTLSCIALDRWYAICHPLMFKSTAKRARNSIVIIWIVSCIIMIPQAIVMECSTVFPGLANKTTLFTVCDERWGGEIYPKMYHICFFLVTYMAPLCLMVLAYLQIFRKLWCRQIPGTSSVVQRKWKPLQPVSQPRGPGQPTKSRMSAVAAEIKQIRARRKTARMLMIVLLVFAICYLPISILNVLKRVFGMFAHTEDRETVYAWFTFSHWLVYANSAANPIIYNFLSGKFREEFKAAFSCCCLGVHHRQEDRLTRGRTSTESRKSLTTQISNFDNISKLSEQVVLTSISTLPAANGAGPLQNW
Description: IPOne (IP-1 accumulation) assay in CHO cells expressing human OX2R. It is filed as cell-based. The conditions noted are these: for pEC50: CHO cells expressing human OX2R, IP-One assay, 2 h incubation, four parameter logistic fit, read-out: OX2R Potency, EC50; for % of maximum agonist effect (relative to Orexin A): percent effect vs mean max effect of a reference compound at 1 uM (100% activity vs Orexin A), human OX2R. From the text:
The utility of the compounds in accordance with the present invention as orexin receptor OX1R and/or OX2R agonists may be readily determined without undue experimentation by methodology well known in the art. Both the OX1R and/or OX2R G-coupled protein receptors (GPCRs) couple through the Gαq signaling pathway, which ultimately promotes calcium mobilization via inositol triphosphate (IP3) production. […] The utility of the compounds in accordance with the present invention as orexin receptor OX1R and/or OX2R agonists may be determined utilizing this assay.
In a typical experiment, the OX1 and OX2 receptor agonist activity is determined in accordance with the following general experimental method. Chinese hamster ovary (CHO) cells expressing human OX1R and/or the human OX2R were grown in Iscove's modified DMEM containing glutaMAX™, 1% G418, 100 U/mL penicillin, 100 μg/mL streptomycin and 10% heat-inactivated qualified fetal bovine serum (FBS). […] During this incubation, IP-one detection reagents were prepared (38:1:1 lysis buffer:D2:AB-cryptate reagents).
For each compound, data were fit to a four parameter logistic fit (ActivityBase software) and the EC50 was reported as the inflection point of the resulting curve. […] The intrinsic orexin receptor agonist activity of a compound which may be used in the present invention may be determined by these assays.

In general, pEC50 refers to the EC50 on a negative log10 scale, so that one unit is a factor of ten.

As for `C=CC[C@H](NC(=O)N(CC)C(c1cc(-c2cn3ccnc3c(OC)n2)c(OC)cn1)C(F)(F)F)C(F)(F)F` (mixture of isomers) [Example 5-1, 1-ethyl-1-(2,2,2-trifluoro-1-(5-methoxy-4-(8-methoxyimidazo[1,2-a]pyrazin-6-yl)pyridin-2-yl)ethyl)-3-((S)-1,1,1-trifluoropent-4-en-2-yl)urea], the pEC50 is 8.32 and the “% of maximum agonist effect (relative to Orexin A)” value turned out to be 100.4%.

In the case of `CCN(C(=O)N[C@@H](C1CCCC(F)(F)C1)C(F)(F)F)[C@H](C)c1cccc(-c2cn3ccnc3c(OC)n2)c1` (single isomer, unassigned) [Example 3-1], the pEC50 is 9.05 and the “% of maximum agonist effect (relative to Orexin A)” value is on record as 100.8%.

For `CCN(C(=O)N[C@@H](CCC(F)(F)F)C(F)(F)F)C(C)c1cc(-c2cc(F)c3nccn3c2)c(Cl)cn1` (single isomer, unassigned) [Example 15-1], the pEC50 was 8.24 and the “% of maximum agonist effect (relative to Orexin A)” value was 100.5%.

Take `CCN(C(=O)NC(C#N)C1CCCC(F)(F)C1)[C@H](C)c1cccc(-c2cn3ccnc3c(OC)n2)c1` (single isomer, unassigned) [Example 16]: the pEC50 was 8.49 and the “% of maximum agonist effect (relative to Orexin A)” value was found to be 100.8%.

`CCN(C(=O)NC(CO)C(F)(F)F)[C@H](C)c1cccc(-c2cn3ccnc3c(OC)n2)c1` (single isomer, unassigned) [Example 21]: the pEC50 was 7.29 and the “% of maximum agonist effect (relative to Orexin A)” value was 96.3%.

Turning to `CCN(C(=O)NC(COC(=O)N(C)C)C(F)(F)F)[C@H](C)c1cccc(-c2cn3ccnc3c(OC)n2)c1` (single isomer, unassigned) [Example 23], the pEC50 is 6.90 and the “% of maximum agonist effect (relative to Orexin A)” value amounted to 95.3%.

Turning to `CCN(C(=O)NC(CC(=O)N(C)C)C(F)(F)F)[C@H](C)c1cccc(-c2cn3ccnc3c(OC)n2)c1` (single isomer, unassigned) [Example 24], the pEC50 is 6.84 and the “% of maximum agonist effect (relative to Orexin A)” value was 89.1%.

As to `CCN(C(=O)N[C@@H](CCC(F)(F)F)C(F)(F)F)[C@H](C)c1cccc(-c2ccc3nccn3c2)c1` [Example 1-1, 1-ethyl-3-((S)-1,1,1,5,5,5-hexafluoropentan-2-yl)-1-((R)-1-(3-(imidazo[1,2-a]pyridin-6-yl)phenyl)ethyl)urea], the pEC50 is 8.15 and the “% of maximum agonist effect (relative to Orexin A)” value is given as 98.4%.

With `CCN(C(=O)N[C@H](C)c1cccc(F)c1)[C@H](C)c1cccc(-c2cn3ccnc3c(OC)n2)c1` [Example 1-2, 1-ethyl-3-((R)-1-(3-fluorophenyl)ethyl)-1-((R)-1-(3-(8-methoxyimidazo[1,2-a]pyrazin-6-yl)phenyl)ethyl)urea], the pEC50 is 8.28 and the “% of maximum agonist effect (relative to Orexin A)” value was 98.3%.

In the case of `CCN(C(=O)N[C@@H]1CC[C@H](C(F)(F)F)C1)[C@H](C)c1cccc(-c2cn3ccnc3c(OC)n2)c1` [Example 1-3, 1-ethyl-1-((R)-1-(3-(8-methoxyimidazo[1,2-a]pyrazin-6-yl)phenyl)ethyl)-3-((1R,3S)-3-(trifluoromethyl)cyclopentyl)urea], the pEC50 was 8.19 and the “% of maximum agonist effect (relative to Orexin A)” value was determined as 99.9%.

With `CCN(C(=O)N[C@H](C)C1CCC(F)(F)CC1)[C@H](C)c1cccc(-c2cn3ccnc3c(OC)n2)c1` [Example 1-4, 3-((R)-1-(4,4-difluorocyclohexyl)ethyl)-1-ethyl-1-((R)-1-(3-(8-methoxyimidazo[1,2-a]pyrazin-6-yl)phenyl)ethyl)urea], the pEC50 is 8.16 and the “% of maximum agonist effect (relative to Orexin A)” value was determined as 96.1%.

Regarding `CCN(C(=O)NCC(F)(F)F)[C@H](C)c1cccc(-c2cn3ccnc3c(OC)n2)c1` [Example 1-5, (R)-1-ethyl-1-(1-(3-(8-methoxyimidazo[1,2-a]pyrazin-6-yl)phenyl)ethyl)-3-(2,2,2-trifluoroethyl)urea], the pEC50 is 7.13 and the “% of maximum agonist effect (relative to Orexin A)” value is recorded as 94.9%.

Take `CCN(C(=O)NC[C@H]1COCC(=O)N1)[C@H](C)c1cccc(-c2cn3ccnc3c(OC)n2)c1` [Example 1-6, 1-ethyl-1-((R)-1-(3-(8-methoxyimidazo[1,2-a]pyrazin-6-yl)phenyl)ethyl)-3-(((S)-5-oxomorpholin-3-yl)methyl)urea]: the pEC50 is 6.71 and the “% of maximum agonist effect (relative to Orexin A)” value was determined as 99.0%.

For the molecule `CCN(C(=O)NCC(N(C)C)C(F)(F)F)[C@H](C)c1cccc(-c2cc(OC)c3nccn3c2)c1` (stereo partly drawn) [Example 1-7, 3-(2-(dimethylamino)-3,3,3-trifluoropropyl)-1-ethyl-1-((R)-1-(3-(8-methoxyimidazo[1,2-a]pyridin-6-yl)phenyl)ethyl)urea], the pEC50 is 7.76 and the “% of maximum agonist effect (relative to Orexin A)” value is reported as 97.3%.

`CC[C@H](CCC(F)(F)F)NC(=O)N(CC)Cc1ccc(OC)c(-c2cc(OC)c3nccn3c2)c1` [Example 1-8, (R)-1-ethyl-1-(4-methoxy-3-(8-methoxyimidazo[1,2-a]pyridin-6-yl)benzyl)-3-(6,6,6-trifluorohexan-3-yl)urea]: the pEC50 is 9.10 and the “% of maximum agonist effect (relative to Orexin A)” value stood at 96.5%.

With `CCN(C(=O)NC(C)C1CCCC(F)(F)C1)[C@H](C)c1cccc(-c2cn3ccnc3c(OC)n2)c1` (stereo partly drawn) [Example 1-9, 3-(1-(3,3-difluorocyclohexyl)ethyl)-1-ethyl-1-((R)-1-(3-(8-methoxyimidazo[1,2-a]pyrazin-6-yl)phenyl)ethyl)urea], the pEC50 is 9.22 and the “% of maximum agonist effect (relative to Orexin A)” value is on record as 99.8%.

For the molecule `CCN(C(=O)NC(C#N)C1CCCC1)[C@H](C)c1cccc(-c2cn3ccnc3c(OC)n2)c1` (stereo partly drawn) [Example 1-10, 3-(cyano(cyclopentyl)methyl)-1-ethyl-1-((R)-1-(3-(8-methoxyimidazo[1,2-a]pyrazin-6-yl)phenyl)ethyl)urea], the pEC50 was 8.08 and the “% of maximum agonist effect (relative to Orexin A)” value was 101.0%.

For the molecule `CCOC(=O)CC(NC(=O)N(CC)[C@H](C)c1cccc(-c2cn3ccnc3c(OC)n2)c1)C(F)(F)F` (stereo partly drawn) [Example 1-11, ethyl 3-(3-ethyl-3-((R)-1-(3-(8-methoxyimidazo[1,2-a]pyrazin-6-yl)phenyl)ethyl)ureido)-4,4,4-trifluorobutanoate], the pEC50 is 7.70 and the “% of maximum agonist effect (relative to Orexin A)” value is on record as 98.0%.

On to `CCN(C(=O)NC(C#N)c1cccc(C(F)(F)F)c1)[C@H](C)c1cccc(-c2cn3ccnc3c(OC)n2)c1` (stereo partly drawn) [Example 1-12, 3-(cyano(3-(trifluoromethyl)phenyl)methyl)-1-ethyl-1-((R)-1-(3-(8-methoxyimidazo[1,2-a]pyrazin-6-yl)phenyl)ethyl)urea], for which the pEC50 was 7.70 and the “% of maximum agonist effect (relative to Orexin A)” value is 99.1%.

Regarding `CCN(C(=O)NC(CN(C)C)C(F)(F)F)[C@H](C)c1cccc(-c2cc(OC)n3nccc3c2)c1` (stereo partly drawn) [Example 1-13, 3-(3-(dimethylamino)-1,1,1-trifluoropropan-2-yl)-1-ethyl-1-((R)-1-(3-(7-methoxypyrazolo[1,5-a]pyridin-5-yl)phenyl)ethyl)urea], the pEC50 is 6.84 and the “% of maximum agonist effect (relative to Orexin A)” value was determined as 80.7%.

As for `CCN(C(=O)NC(CC#N)C(F)(F)F)[C@H](C)c1cccc(-c2cn3ccnc3c(OC)n2)c1` (stereo partly drawn) [Example 1-14, 3-(3-cyano-1,1,1-trifluoropropan-2-yl)-1-ethyl-1-((R)-1-(3-(8-methoxyimidazo[1,2-a]pyrazin-6-yl)phenyl)ethyl)urea], the pEC50 was 7.73 and the “% of maximum agonist effect (relative to Orexin A)” value was 101.3%.

`CCN(C(=O)NC(C1CN(C)C1)C(F)(F)F)[C@H](C)c1cccc(-c2cn3ccnc3c(OC)n2)c1` (stereo partly drawn) [Example 1-15, 1-ethyl-1-((R)-1-(3-(8-methoxyimidazo[1,2-a]pyrazin-6-yl)phenyl)ethyl)-3-(2,2,2-trifluoro-1-(1-methylazetidin-3-yl)ethyl)urea]: the pEC50 was 6.57 and the “% of maximum agonist effect (relative to Orexin A)” value is 99.7%.

Regarding `CCN(C(=O)NC(Cn1nccn1)C(F)(F)F)[C@H](C)c1cccc(-c2cn3ccnc3c(OC)n2)c1` (stereo partly drawn) [Example 1-16, 1-ethyl-1-((R)-1-(3-(8-methoxyimidazo[1,2-a]pyrazin-6-yl)phenyl)ethyl)-3-(1,1,1-trifluoro-3-(2H-1,2,3-triazol-2-yl)propan-2-yl)urea], the pEC50 is 8.55 and the “% of maximum agonist effect (relative to Orexin A)” value turned out to be 100.1%.
